# Literature values as cited in patent US20220288013A1, “1,8-CINEOL COATED IMPLANTS” (THE BOARD OF TRUSTEES OF THE LELAND STANFORD JUNIOR …, priority 2019, published 2022).
# Legend:
# WNT/β-catenin pathway = details: permanent HNSCC cell lines
# [1] = test system: head and neck squamous cell carcinoma (HNSCC) cell lines; details: exposure of different cell lines; permanent HNSCC cell lines
# Wnt11 = details: HNSCC cell lines
structure (smiles),measurement,setting,value
"CC12CCC(CC1)C(C)(C)O2 [1,8-cineol, 1,3,3-Trimethyl-2-oxabicyclo[2.2.2]octane]","activity of the WNT/β-catenin pathway (canonical pathway), especially of Wnt11",WNT/β-catenin pathway,decrease the activity of the WNT/β-catenin pathway
same,proliferation,[1],inhibit proliferation
same,expression of Wnt11,Wnt11,reduces expression of Wnt11
